The conditions of data set [1]: 101.33 kPa, Liquid, Vibrating tube method.
Data set [2] is described as follows: activity coefficient (dimensionless); of the first substance listed, at infinite dilution; xn = mol fraction of the nth substance listed. The conditions noted are these: 101.33 kPa, Liquid, Chromatography, x1 = 0.

Numbers after ± are expanded uncertainties.

Consider `CO[PH](=O)[O-].Cn1cc[n+](C)c1` [1,3-dimethylimidazolium methyl phosphonate], for which the mass density in data set [1] (293.15 K) worked out at 1252.5 ± 1.8 kg/m3; in data set [1] (303.15 K) it was 1246.4 ± 1.8 kg/m3; in data set [1] (313.15 K), 1241.7 ± 1.8 kg/m3; in data set [1] (323.15 K) it was 1233.4 ± 1.8 kg/m3; in data set [1] (333.15 K), 1227.2 ± 1.7 kg/m3; in data set [1] (343.15 K), 1220.8 ± 1.7 kg/m3.
In the case of `CCn1cc[n+](C)c1.CO[PH](=O)[O-]` [1-ethyl-3-methylimidazolium methyl phosphonate], the mass density in data set [1] (293.15 K) worked out at 1190.6 ± 1.6 kg/m3; in data set [1] (303.15 K), 1184.1 ± 1.6 kg/m3; in data set [1] (313.15 K) it was 1180.1 ± 1.6 kg/m3; in data set [1] (323.15 K), 1174 ± 1.6 kg/m3; in data set [1] (333.15 K) it was 1168.7 ± 1.6 kg/m3; in data set [1] (343.15 K), 1163.2 ± 1.5 kg/m3.
For `C[N+](=O)[O-]` [nitromethane] + CO[PH](=O)[O-].Cn1cc[n+](C)c1, the activity coefficient turned out to be 0.8 ± 0.05 in data set [2] (313.15 K), 0.81 ± 0.05 in data set [2] (323.15 K), 0.82 ± 0.05 in data set [2] (333.15 K) and 0.83 ± 0.05 in data set [2] (343.15 K).
On to `C1CCCCCC1` [cycloheptane] + CCn1cc[n+](C)c1.CO[PH](=O)[O-], for which the activity coefficient in data set [2] (313.15 K) turned out to be 98.8 ± 6.8; in data set [2] (333.15 K) it was 180 ± 12; in data set [2] (353.15 K) it was 303 ± 21; in data set [2] (373.15 K), 438 ± 30.
`CC1CCCC1` [methylcyclopentane] + CCn1cc[n+](C)c1.CO[PH](=O)[O-]: the activity coefficient in data set [2] (313.15 K) is 76 ± 5.
On to `CCC(C)=O` [butanone] + CO[PH](=O)[O-].Cn1cc[n+](C)c1, for which the activity coefficient in data set [2] (313.15 K) came out at 5.52 ± 0.38; in data set [2] (323.15 K) it was 5.16 ± 0.35; in data set [2] (333.15 K) it was 4.66 ± 0.32; in data set [2] (343.15 K), 4.17 ± 0.28.
Turning to `Cc1ccccc1` [toluene] + CO[PH](=O)[O-].Cn1cc[n+](C)c1, the activity coefficient in data set [2] (313.15 K) came out at 11.5 ± 0.78; in data set [2] (323.15 K) it was 11.4 ± 0.78; in data set [2] (333.15 K), 11.3 ± 0.77; in data set [2] (343.15 K), 11.2 ± 0.77.
On the same counts, the results for `c1ccccc1` [benzene] + CO[PH](=O)[O-].Cn1cc[n+](C)c1 are 5.69 ± 0.39, 5.58 ± 0.38, 5.52 ± 0.38 and 5.43 ± 0.37.
On the same counts, the results for `ClC(Cl)Cl` [trichloromethane] + CO[PH](=O)[O-].Cn1cc[n+](C)c1 are 0.39 ± 0.03, 0.43 ± 0.04, 0.48 ± 0.04 and 0.51 ± 0.04.
Regarding `CCCCO` [butan-1-ol] + CCn1cc[n+](C)c1.CO[PH](=O)[O-], the activity coefficient in data set [2] (353.15 K) is 0.308 ± 0.031; in data set [2] (373.15 K) it was 0.324 ± 0.032.
Regarding `CCO` [ethanol] + CCn1cc[n+](C)c1.CO[PH](=O)[O-], the values for the activity coefficient in data set [2] (333.15 K), in data set [2] (353.15 K) and in data set [2] (373.15 K) were 0.148 ± 0.029, 0.156 ± 0.029 and 0.169 ± 0.029, respectively.
Consider `C=O` [methanal] + CCn1cc[n+](C)c1.CO[PH](=O)[O-], for which the activity coefficient in data set [2] (313.15 K) turned out to be 0.059; in data set [2] (333.15 K), 0.084 ± 0.03; in data set [2] (353.15 K), 0.115 ± 0.03; in data set [2] (373.15 K) it was 0.151 ± 0.029.
The corresponding values for `CCC(C)=O` [butanone] + CCn1cc[n+](C)c1.CO[PH](=O)[O-] are 3.49 ± 0.24, 3 ± 0.2, 2.56 ± 0.17 and 2.37 ± 0.16.
The corresponding values for `c1ccncc1` [pyridine] + CCn1cc[n+](C)c1.CO[PH](=O)[O-] are 1.77 ± 0.12, 1.84 ± 0.12, 1.95 ± 0.13 and 2 ± 0.14.

A word on the mass density: it is the mass of a sample divided by its volume.
